{
  "source": "ChEMBL document CHEMBL5338751",
  "about": "“Discovery of the First-in-Class Intestinal Restricted FXR and FABP1 Dual Modulator ZLY28 for the Treatment of Nonalcoholic Fatty Liver Disease” (J Med Chem, 2023)",
  "key": {"[1]": {"assay": "Activation of Gal-DBD and NHRLBD fused RXRalpha (unknown origin) transfected in African green monkey CV-1 cells by luciferase reporter assay", "assay_type": "cell-based", "conditions": "Homo sapiens"}, "[2]": {"assay": "Agonist activity at PPARbeta/delta (unknown origin) transfected in HepG2 cells incubated for 18 hrs by renilla/firefly based dual-glo luciferase assay", "assay_type": "cell-based", "conditions": "Homo sapiens, HepG2, 18 h"}, "Mus musculus [3]": {"tested_on": "Mus musculus", "assay": "Antioxidant activity in western diet and CCl4-induced nonalcoholic steatohepatitis C57BL/6 mouse model assessed as increase in SOD level at 20 mg/kg, po administered for 12 weeks starting from week 8 and change in dose for every 5 days", "assay_type": "functional, organism-based", "conditions": "time 4.0 weeks"}, "Androgen receptor": {"molecular_target": "Androgen receptor (Homo sapiens, UniProt P10275)", "sequence (P10275 whole entry, the tested form may be a part)": "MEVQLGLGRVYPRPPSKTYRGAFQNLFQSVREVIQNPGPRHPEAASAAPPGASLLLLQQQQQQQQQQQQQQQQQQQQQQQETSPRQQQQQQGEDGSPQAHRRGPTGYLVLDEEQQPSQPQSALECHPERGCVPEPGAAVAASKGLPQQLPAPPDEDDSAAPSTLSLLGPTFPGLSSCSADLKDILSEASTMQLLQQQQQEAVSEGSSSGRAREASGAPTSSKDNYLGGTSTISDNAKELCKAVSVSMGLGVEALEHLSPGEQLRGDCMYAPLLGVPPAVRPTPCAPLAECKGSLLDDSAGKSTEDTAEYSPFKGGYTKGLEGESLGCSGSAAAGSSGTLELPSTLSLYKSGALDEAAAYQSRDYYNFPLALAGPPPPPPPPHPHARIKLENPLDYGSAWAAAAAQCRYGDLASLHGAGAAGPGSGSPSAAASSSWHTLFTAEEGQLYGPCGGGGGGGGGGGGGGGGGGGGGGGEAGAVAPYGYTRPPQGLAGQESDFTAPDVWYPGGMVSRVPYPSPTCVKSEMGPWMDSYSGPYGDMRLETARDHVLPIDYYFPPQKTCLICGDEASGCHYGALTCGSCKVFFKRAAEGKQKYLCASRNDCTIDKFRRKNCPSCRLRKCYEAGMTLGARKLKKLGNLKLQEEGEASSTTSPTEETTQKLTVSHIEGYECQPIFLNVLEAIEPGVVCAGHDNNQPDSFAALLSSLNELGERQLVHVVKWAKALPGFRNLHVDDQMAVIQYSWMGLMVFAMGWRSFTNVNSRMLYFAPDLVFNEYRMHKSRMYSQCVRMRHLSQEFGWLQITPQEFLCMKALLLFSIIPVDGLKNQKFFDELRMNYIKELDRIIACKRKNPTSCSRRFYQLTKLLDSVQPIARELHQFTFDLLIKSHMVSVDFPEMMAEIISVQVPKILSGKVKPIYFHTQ", "assay": "Activation of Gal-DBD and NHRLBD fused AR (unknown origin) transfected in African green monkey CV-1 cells by luciferase reporter assay", "assay_type": "cell-based"}, "Mus musculus [4]": {"tested_on": "Mus musculus", "assay": "In vivo inhibition of FABP1 in western diet and CCl4-induced nonalcoholic steatohepatitis C57BL/6 mouse assessed as increase in excretion of NEFA in fecal at 20 mg/kg, po administered for 12 weeks starting from week 8 and change in dose for every 5 days", "assay_type": "functional, organism-based", "conditions": "time 4.0 weeks"}, "[5]": {"assay": "Subacute toxicity in ICR mouse assessed as changes in serum BUN level at 500 mg/kg/day, po administered for 14 days", "assay_type": "organism-based", "conditions": "in vivo, 336 h, time 14 day"}, "[6]": {"assay": "Ratio of drug level in liver to plasma in C57BL/6 mouse at 20 mg/kg, po administered for 5 days and measured after 1 hr post final dose by LC-MS analysis"}, "Mus musculus [7]": {"tested_on": "Mus musculus", "assay": "In vivo inhibition of FABP1 in western diet and CCl4-induced nonalcoholic steatohepatitis C57BL/6 mouse assessed as reduction in NEFA uptake in fecal at 20 mg/kg, po administered for 12 weeks starting from week 8 and change in dose for every 5 days", "assay_type": "functional, organism-based", "conditions": "time 4.0 weeks"}, "[8]": {"assay": "Metabolic stability in mouse liver microsomes assessed as parent compound remaining incubated for 1 hr by LC-MS analysis", "assay_type": "ADME, Microsome", "conditions": "read-out: Stability"}, "[9]": {"molecular_target": "G-protein coupled bile acid receptor 1 (Homo sapiens, UniProt Q8TDU6)", "sequence (Q8TDU6 whole entry)": "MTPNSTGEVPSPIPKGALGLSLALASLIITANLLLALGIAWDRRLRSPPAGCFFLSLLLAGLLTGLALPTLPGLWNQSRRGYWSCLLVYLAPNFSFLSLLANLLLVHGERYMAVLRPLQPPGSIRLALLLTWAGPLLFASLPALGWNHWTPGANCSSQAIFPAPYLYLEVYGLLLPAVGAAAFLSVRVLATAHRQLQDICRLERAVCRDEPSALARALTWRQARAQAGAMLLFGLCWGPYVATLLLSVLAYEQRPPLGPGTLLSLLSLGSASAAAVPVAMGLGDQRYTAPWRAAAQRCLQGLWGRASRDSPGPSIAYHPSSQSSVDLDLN", "assay": "Activation of TGR5 (unknown origin) transfected in human NCI-H716 cells assessed as increase in cAMP production incubated for 24 hrs by HTR-FRET assay", "assay_type": "functional, cell-based"}, "Mus musculus [10]": {"tested_on": "Mus musculus", "assay": "Anti-NASH activity in western diet and CCl4-induced nonalcoholic steatohepatitis C57BL/6 mouse assessed as downregulation of TNFalpha expression level at 20 mg/kg, po administered for 12 weeks starting from week 8 and change in dose for every 5 days by ELISA", "assay_type": "functional, organism-based", "conditions": "time 4.0 weeks"}, "[11]": {"assay": "Metabolic stability in Beagle dog liver microsomes assessed as parent compound remaining incubated for 1 hr by LC-MS analysis", "assay_type": "ADME, Canis lupus familiaris, Microsome", "conditions": "read-out: Stability"}, "[12]": {"molecular_target": "T1, Peroxisome proliferator-activated receptor alpha (Homo sapiens, UniProt Q07869)", "T1 sequence (Q07869 whole entry)": "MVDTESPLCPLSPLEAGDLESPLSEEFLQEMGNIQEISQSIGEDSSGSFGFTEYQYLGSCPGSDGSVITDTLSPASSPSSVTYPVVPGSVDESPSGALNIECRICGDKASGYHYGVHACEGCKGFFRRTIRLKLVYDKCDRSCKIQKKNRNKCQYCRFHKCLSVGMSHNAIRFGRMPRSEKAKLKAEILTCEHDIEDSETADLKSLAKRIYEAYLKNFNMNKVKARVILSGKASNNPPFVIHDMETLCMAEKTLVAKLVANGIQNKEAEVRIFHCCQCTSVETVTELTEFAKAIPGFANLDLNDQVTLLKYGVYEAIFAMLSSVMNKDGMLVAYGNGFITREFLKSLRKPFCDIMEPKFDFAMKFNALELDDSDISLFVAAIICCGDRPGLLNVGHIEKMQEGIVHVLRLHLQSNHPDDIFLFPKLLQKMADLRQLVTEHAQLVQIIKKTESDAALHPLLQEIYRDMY", "assay": "Inhibition of pBIND-PPARalpha (unknown origin) transfected in HepG2 cells incubated for 18 hrs in presence of […] by dual luciferase reporter assay", "assay_type": "cell-based"}, "[13]": {"assay": "Subacute toxicity in ICR mouse assessed as changes in serum ALT level at 500 mg/kg/day, po administered for 14 days", "assay_type": "organism-based", "conditions": "in vivo, 336 h, time 14 day"}, "[14]": {"molecular_target": "T2, Peroxisome proliferator-activated receptor gamma (Homo sapiens, UniProt P37231)", "T2 sequence (P37231 whole entry)": "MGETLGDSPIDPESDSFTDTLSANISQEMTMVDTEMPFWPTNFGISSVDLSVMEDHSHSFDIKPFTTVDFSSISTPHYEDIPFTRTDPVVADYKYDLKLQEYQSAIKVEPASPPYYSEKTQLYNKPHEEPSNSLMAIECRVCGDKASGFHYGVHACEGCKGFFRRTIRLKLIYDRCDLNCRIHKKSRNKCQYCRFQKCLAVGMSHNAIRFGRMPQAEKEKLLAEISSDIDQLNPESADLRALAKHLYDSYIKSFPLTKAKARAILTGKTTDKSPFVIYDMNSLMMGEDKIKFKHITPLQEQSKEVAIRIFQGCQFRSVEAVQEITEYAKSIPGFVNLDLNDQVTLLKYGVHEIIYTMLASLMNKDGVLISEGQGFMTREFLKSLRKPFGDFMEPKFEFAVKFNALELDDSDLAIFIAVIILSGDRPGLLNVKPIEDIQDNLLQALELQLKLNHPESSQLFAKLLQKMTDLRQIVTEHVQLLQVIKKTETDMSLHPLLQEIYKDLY", "assay": "Agonist activity at PPARgamma (unknown origin) transfected in HEK293 cells incubated for 18 hrs by renilla/firefly based dual-glo luciferase assay", "assay_type": "cell-based"}, "[15]": {"molecular_target": "T1, Peroxisome proliferator-activated receptor alpha", "assay": "Agonist activity at pBIND-PPARalpha (unknown origin) transfected in HepG2 cells incubated for 18 hrs by renilla/firefly based dual-glo luciferase assay", "assay_type": "cell-based"}, "[16]": {"molecular_target": "T3, Bile acid receptor (Mus musculus) (UniProt Q60641)", "T3 sequence (whole entry)": "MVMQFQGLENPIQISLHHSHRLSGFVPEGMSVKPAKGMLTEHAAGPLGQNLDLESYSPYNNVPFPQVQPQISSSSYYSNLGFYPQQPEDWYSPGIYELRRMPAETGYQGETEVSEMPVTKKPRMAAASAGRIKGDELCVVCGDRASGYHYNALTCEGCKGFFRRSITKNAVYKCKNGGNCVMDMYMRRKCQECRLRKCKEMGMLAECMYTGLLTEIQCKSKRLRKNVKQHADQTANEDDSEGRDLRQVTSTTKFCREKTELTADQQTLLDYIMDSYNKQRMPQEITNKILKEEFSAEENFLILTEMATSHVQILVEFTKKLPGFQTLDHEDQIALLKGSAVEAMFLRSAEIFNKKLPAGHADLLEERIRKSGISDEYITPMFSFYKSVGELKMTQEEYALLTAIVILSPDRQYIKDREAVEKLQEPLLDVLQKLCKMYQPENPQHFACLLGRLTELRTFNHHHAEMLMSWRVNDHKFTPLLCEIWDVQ", "assay": "In vivo activation of FXR pathway in western diet and CCl4-induced nonalcoholic steatohepatitis C57BL/6 mouse model assessed as upregulation of SHP gene expression in ileum at 20 mg/kg, po administered for 12 weeks starting from week 8 and change in dose for every 5 days by RT-PCR analysis", "assay_type": "functional, organism-based", "conditions": "time 4.0 weeks"}, "Mus musculus [17]": {"tested_on": "Mus musculus", "assay": "Anti-NASH activity in western diet and CCl4-induced nonalcoholic steatohepatitis C57BL/6 mouse assessed as downregulation of IL-1beta expression level at 20 mg/kg, po administered for 12 weeks starting from week 8 and change in dose for every 5 days by ELISA", "assay_type": "functional, organism-based", "conditions": "time 4.0 weeks"}},
  "note": "Activity calls are given as the source filed them. The calls are words filed in the database; no cut-off is given here.",
  "data": [
    {"molecule": "O=C(O)C1(c2cccc(-c3ccc(OCc4c(-c5c(Cl)cccc5Cl)noc4C4CC4)cc3)c2)CC1", "values": [
      {"measurement": "EC50", "setting": "[1]", "value": "> 10", "unit": "µM"},
      {"measurement": "EC50", "setting": "[2]", "value": "> 10", "unit": "µM"},
      {"measurement": "Activity", "setting": "Mus musculus [3]", "value": "Active"},
      {"measurement": "EC50", "setting": "Androgen receptor", "value": "> 10", "unit": "µM"},
      {"measurement": "Activity", "setting": "Mus musculus [4]", "value": "Active"},
      {"measurement": "Activity", "setting": "[5]", "value": "Non-Toxic"},
      {"measurement": "Kp at 120 h", "setting": "[6]", "value": 5.1},
      {"measurement": "Activity", "setting": "Mus musculus [7]", "value": "Active"},
      {"measurement": "remaining at 1 h", "setting": "[8]", "value": 64.3, "unit": "%"},
      {"measurement": "EC50", "setting": "[9]", "value": "> 10", "unit": "µM"},
      {"measurement": "Activity", "setting": "Mus musculus [10]", "value": "Active"},
      {"measurement": "remaining at 1 h", "setting": "[11]", "value": 57.4, "unit": "%"},
      {"measurement": "IC50", "setting": "[12]", "value": "> 10", "unit": "µM"},
      {"measurement": "Activity", "setting": "[13]", "value": "Non-Toxic"},
      {"measurement": "EC50", "setting": "[14]", "value": "> 10", "unit": "µM"},
      {"measurement": "EC50", "setting": "[15]", "value": "> 10", "unit": "µM"},
      {"measurement": "Activity", "setting": "[16]", "value": "Active"},
      {"measurement": "Activity", "setting": "Mus musculus [17]", "value": "Active"}
    ]}
  ]
}
